According to ChEMBL document CHEMBL3399969, “Multifunctional scutellarin-rivastigmine hybrids with cholinergic, antioxidant, biometal chelating and neuroprotective properties for the treatment of Alzheimer's disease” (Bioorg Med Chem, 2015):
Active and inactive are the calls of the source. The rule behind the calls is not given here.

How the values were obtained:
Acetylcholinesterase = target: T1, Acetylcholinesterase (Rattus norvegicus, UniProt P37136); test: Inhibition of rat cortex AChE using acetylthiocholine iodide as substrate after 15 mins by Ellman method
T1 sequence (P37136 whole entry): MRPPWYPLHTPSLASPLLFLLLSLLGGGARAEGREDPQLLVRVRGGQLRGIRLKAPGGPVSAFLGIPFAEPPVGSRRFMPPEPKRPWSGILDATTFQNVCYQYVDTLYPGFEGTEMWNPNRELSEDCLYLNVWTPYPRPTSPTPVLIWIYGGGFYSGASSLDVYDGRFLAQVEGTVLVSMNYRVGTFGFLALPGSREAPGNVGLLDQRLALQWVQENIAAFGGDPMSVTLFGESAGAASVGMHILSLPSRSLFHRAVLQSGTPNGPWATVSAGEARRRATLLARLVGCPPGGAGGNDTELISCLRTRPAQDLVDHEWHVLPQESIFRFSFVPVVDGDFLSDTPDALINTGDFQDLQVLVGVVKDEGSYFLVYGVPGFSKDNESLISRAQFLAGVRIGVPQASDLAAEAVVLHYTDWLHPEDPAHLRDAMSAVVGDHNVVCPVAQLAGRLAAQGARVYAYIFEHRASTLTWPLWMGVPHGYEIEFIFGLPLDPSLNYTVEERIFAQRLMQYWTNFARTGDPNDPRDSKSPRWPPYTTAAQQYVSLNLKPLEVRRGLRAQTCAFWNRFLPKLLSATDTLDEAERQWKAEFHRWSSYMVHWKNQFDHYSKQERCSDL

[1] = Inhibition of rat serum BuChE using butyrylthiocholine iodide as substrate after 15 mins by Ellman method; assay type: cell-free
Rattus norvegicus = species: Rattus norvegicus; test: Selectivity index, ratio of IC50 for rat serum BuChE to IC50 for rat cortex AChE; assay type: cell-free
[2] = Antioxidant activity assessed as trolox equivalent of […]-induced radical scavenging activity by ORAC-FL method; assay type: physicochemical
PC-12 = test: Neuroprotective effect against H2O2-induced rat PC12 cell injury assessed as cell viability at 10 uM incubated for 2 hrs prior to H2O2 challenge measured after 24 hrs by MTT assay (reference value: 57.6%); assay type: functional; conditions: read-out: Activity
[3] = target: Acetylcholinesterase (Electrophorus electricus) (UniProt O42275); test: Mixed-type inhibition of electric eel AChE using acetylthiocholine iodide as substrate at 0.5 to 1.5 uM after 15 mins by Lineweaver-Burk reciprocal plot analysis
Sequence of Acetylcholinesterase (Electrophorus electricus) (O42275 24-633 limits assumed): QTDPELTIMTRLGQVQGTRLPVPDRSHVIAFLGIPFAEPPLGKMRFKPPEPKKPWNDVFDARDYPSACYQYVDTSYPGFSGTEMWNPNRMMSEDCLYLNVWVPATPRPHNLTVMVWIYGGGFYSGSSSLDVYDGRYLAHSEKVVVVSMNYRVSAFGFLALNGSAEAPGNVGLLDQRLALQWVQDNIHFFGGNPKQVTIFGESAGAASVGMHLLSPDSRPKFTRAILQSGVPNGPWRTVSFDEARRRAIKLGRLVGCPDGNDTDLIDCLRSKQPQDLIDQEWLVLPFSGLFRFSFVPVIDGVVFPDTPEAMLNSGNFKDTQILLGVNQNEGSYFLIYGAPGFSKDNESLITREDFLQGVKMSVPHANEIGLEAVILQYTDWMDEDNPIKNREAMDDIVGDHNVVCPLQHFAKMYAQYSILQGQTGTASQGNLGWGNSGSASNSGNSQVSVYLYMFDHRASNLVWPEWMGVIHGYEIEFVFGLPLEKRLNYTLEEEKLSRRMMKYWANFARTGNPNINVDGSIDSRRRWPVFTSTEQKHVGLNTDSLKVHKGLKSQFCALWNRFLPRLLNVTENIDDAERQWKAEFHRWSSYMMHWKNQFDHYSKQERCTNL

[4] = Metal chelating activity of the compound assessed as Cu2+ complex formation after 30 mins by UV-Vis spectrometry; assay type: physicochemical; conditions: 0.5 h
[5] = Metal chelating activity of the compound assessed as Zn2+ complex formation after 30 mins by UV-Vis spectrometry; assay type: physicochemical; conditions: 0.5 h
[6] = Metal chelating activity of the compound assessed as Al3+ complex formation after 30 mins by UV-Vis spectrometry; assay type: physicochemical; conditions: 0.5 h
[7] = Metal chelating activity of the compound assessed as Fe2+ complex formation after 30 mins by UV-Vis spectrometry; assay type: physicochemical; conditions: 0.5 h
Mus musculus [8] = test: Toxicity in Kunming mouse assessed as change in behavior at 6 mg/kg; assay type: organism-based; parameters: dose 6 mg/kg; conditions: in vivo
Mus musculus [9] = test: Toxicity in Kunming mouse assessed as change in behavior at 2 to 8 mg/kg; assay type: organism-based; parameters: dose 2-8 mg/kg; conditions: in vivo
Mus musculus [10] = species: Mus musculus; test: Cognitive enhancing effect in Kunming mouse assessed as inhibition of scopolamine-induced decreased spontaneous alternation behavior after 30 mins by T-maze test; assay type: functional, organism-based
Mus musculus [11] = test: Cognitive enhancing effect in Kunming mouse assessed as inhibition of scopolamine-induced decreased spontaneous alternation behavior at 8 mg/kg after 30 mins by T-maze test; assay type: functional; parameters: scale not given: the % may be the effect or the level left
Mus musculus [12] = species: Mus musculus; test: Neuroprotective effect in Kunming mouse hippocampus assessed as reduction of scopolamine-induced vitality of AChE by Ellman method; assay type: functional, organism-based
Mus musculus [13] = test: Neuroprotective effect in Kunming mouse hippocampus assessed as reduction of scopolamine-induced vitality of AChE at 8 mg/kg by Ellman method; assay type: functional
Mus musculus [14] = species: Mus musculus; test: Neuroprotective effect in scopolamine-treated Kunming mouse hippocampus assessed as increase in vitality of ChAT by Ellman method; assay type: functional, organism-based
Mus musculus [15] = test: Neuroprotective effect in scopolamine-treated Kunming mouse hippocampus assessed as increase in vitality of ChAT at 8 mg/kg by Ellman method; assay type: functional

SMILES	IC50 (Acetylcholinesterase) [µM]	IC50 [1] [µM]	Ratio IC50 (Rattus norvegicus)	Activity [2]	viability at 10 µM (PC-12) [%]	other results
COc1cc2oc(-c3cccc(OC(=O)N4CCN(Cc5ccccc5)CC4)c3)cc(=O)c2c(OC)c1OC	87.1	7.1	0.1	0.34	–	–
COc1cc2oc(-c3ccc(OC(=O)N4CCN(C)CC4)cc3)cc(=O)c2c(O)c1OC	5	> 100	> 20	1	–	–
COc1cc2oc(-c3ccc(OC(=O)N4CCOCC4)cc3)cc(=O)c2c(O)c1OC	> 100	> 100	–	0.9	66.5	–
COc1cc2oc(-c3ccc(OC(=O)N4CCCCC4)cc3)cc(=O)c2c(O)c1OC	17.8	> 100	> 5.6	1.1	79.6	–
CCN(C)C(=O)Oc1cccc(-c2cc(=O)c3c(O)c(OC)c(OC)cc3o2)c1	14.8	> 100	> 6.8	0.9	–	–
COc1cc2oc(-c3cccc(OC(=O)N4CCN(C)CC4)c3)cc(=O)c2c(O)c1OC	23.3	68.2	2.9	1.2	–	–
COc1cc2oc(-c3ccc(OC(=O)N4CCN(Cc5ccccc5)CC4)cc3)cc(=O)c2c(OC)c1OC	1.04	37.2	35.8	0.32	81.9	–
COc1cc2oc(-c3cccc(O)c3)cc(=O)c2c(OC)c1OC	> 100	> 100	–	1.8	–	–
COc1cc2oc(-c3cccc(OC(=O)N4CCOCC4)c3)cc(=O)c2c(OC)c1OC	> 100	> 100	–	0.29	–	–
CCN(CC)C(=O)Oc1cccc(-c2cc(=O)c3c(OC)c(OC)c(OC)cc3o2)c1	6.11	30.1	4.9	0.31	70.8	–
CCN(C)C(=O)Oc1ccc(-c2cc(=O)c3c(OC)c(OC)c(OC)cc3o2)cc1	1.54	6.2	4	0.34	75.1	–
CCN(C)C(=O)Oc1ccc(-c2cc(=O)c3c(O)c(OC)c(OC)cc3o2)cc1	2.1	38.1	18.1	1.1	78.3	–
COc1cc2oc(-c3ccc(OC(=O)N(C)C)cc3)cc(=O)c2c(O)c1OC	17.3	61.5	3.6	1.2	76.7	–
CCN(CC)C(=O)Oc1cccc(-c2cc(=O)c3c(O)c(OC)c(OC)cc3o2)c1	10.3	34.5	3.3	1.3	–	–
COc1cc2oc(-c3ccc(OC(=O)N4CCN(C)CC4)cc3)cc(=O)c2c(OC)c1OC	11.4	63.8	5.6	0.29	82.4	–
COc1cc2oc(-c3cccc(OC(=O)N(C)C)c3)cc(=O)c2c(OC)c1OC	37.3	28.3	0.8	0.28	69.3	–
COc1cc2oc(-c3ccc(OC(=O)N(C(C)C)C(C)C)cc3)cc(=O)c2c(OC)c1OC	13.7	38.2	2.8	0.33	–	–
COc1cc2oc(-c3cccc(OC(=O)N4CCCCC4)c3)cc(=O)c2c(OC)c1OC	45.7	26.8	0.6	0.31	72.5	–

SMILES	IC50 (Acetylcholinesterase) [µM]	IC50 [1] [µM]	Ratio IC50 (Rattus norvegicus)	Activity [2]	viability at 10 µM (PC-12) [%]	other results
COc1cc2oc(-c3cccc(O)c3)cc(=O)c2c(O)c1OC	> 100	> 100	–	3.7	–	–
CCN(CC)C(=O)Oc1ccc(-c2cc(=O)c3c(O)c(OC)c(OC)cc3o2)cc1	0.57	22.6	39.7	1.3	78.5	inhibition [3]: Active; Activity [4]: Not Active; Activity [5]: Not Active; Activity [6]: Not Active; Activity [7]: Not Active; Activity (Mus musculus [8]): Non-toxic; Activity (Mus musculus [9]): Non-toxic; Activity (Mus musculus [10]): Dose-dependent effect; Activity (Mus musculus [11]): 68.7%; Activity (Mus musculus [12]): Dose-dependent effect; Activity (Mus musculus [13]): 0.11 U/mg; Activity (Mus musculus [14]): Dose-dependent effect; Activity (Mus musculus [15]): 45.2 U/mg
COc1cc2oc(-c3ccc(OC(=O)N4CCN(Cc5ccccc5)CC4)cc3)cc(=O)c2c(O)c1OC	9.25	> 100	> 10.8	0.9	84.5	–
COc1cc2oc(-c3cccc(OC(=O)N4CCOCC4)c3)cc(=O)c2c(O)c1OC	> 100	> 100	–	1.2	66.1	–
COc1cc2oc(-c3ccc(O)cc3)cc(=O)c2c(O)c1OC [CIRSIMARITIN]	> 100	> 100	–	5.4	–	–
COc1cc2oc(-c3ccc(OC(=O)N4CCOCC4)cc3)cc(=O)c2c(OC)c1OC	68.3	> 100	> 1.5	0.27	–	–
COc1cc2oc(-c3cccc(OC(=O)N4CCN(C)CC4)c3)cc(=O)c2c(OC)c1OC	31.2	> 100	> 3.2	0.36	82.1	–
COc1cc2oc(-c3cccc(OC(=O)N4CCN(Cc5ccccc5)CC4)c3)cc(=O)c2c(O)c1OC	51.7	15.7	0.3	1.3	80.3	–
CCN(C)C(=O)Oc1cccc(-c2cc(=O)c3c(OC)c(OC)c(OC)cc3o2)c1	7.37	38.1	5.2	0.32	70.8	–
COc1cc2oc(-c3cccc(OC(=O)N4CCCCC4)c3)cc(=O)c2c(O)c1OC	> 100	> 100	–	1.1	–	–
COc1cc2oc(-c3ccc(OC(=O)N(C)C)cc3)cc(=O)c2c(OC)c1OC	8.24	7.3	0.9	0.32	73.5	–
COc1cc2oc(-c3ccc(O)cc3)cc(=O)c2c(OC)c1OC	> 100	> 100	–	2.6	–	–
COc1cc2oc(-c3ccc(OC(=O)N(C(C)C)C(C)C)cc3)cc(=O)c2c(O)c1OC	> 100	> 100	–	1	68.7	–
CCN(CC)C(=O)Oc1ccc(-c2cc(=O)c3c(OC)c(OC)c(OC)cc3o2)cc1	0.34	8.2	24.1	0.36	70.3	Activity [4]: Active; Activity [5]: Active; Activity [6]: Active; Activity [7]: Active
COc1cc2oc(-c3cccc(OC(=O)N(C)C)c3)cc(=O)c2c(O)c1OC	25.7	23.6	0.9	1.2	–	–
COc1cc2oc(-c3ccc(OC(=O)N4CCCCC4)cc3)cc(=O)c2c(OC)c1OC	21.2	15.3	0.7	0.31	65.2	–
COc1cc2oc(-c3cccc(OC(=O)N(C(C)C)C(C)C)c3)cc(=O)c2c(OC)c1OC	87.5	> 100	> 1.1	0.3	–	–
COc1cc2oc(-c3cccc(OC(=O)N(C(C)C)C(C)C)c3)cc(=O)c2c(O)c1OC	96.5	> 100	> 1	1.1	–	–
